Measurements as given in article PMC11536310, “Evaluation of STK17B as a cancer immunotherapy target utilizing highly potent and selective small molecule inhibitors” (Frontiers in Immunology, 2024).

Tested on: phospho-myosin light chain 2 (pMLC2) S19
Test: pMLC2 flow cytometry assay in mouse whole blood in vitro
Format: cell-based
Details: ROCK1/2 inhibitor added to top concentration (30 µM) of BLU4565

Question: With CC1=C(C(=O)Nc2cc3cn[nH]c3cc2F)C(c2ccc(C(F)(F)F)cc2)CC(=O)N1 (stereo not shown) [GSK429286A] as the compound, how does the “further reduction of pMLC2 median fluorescence intensity signal compared with BLU4565 alone” value read?
Answer: Minimal further reduction
